Reference: patent publication US7053043B1, “Pharmaceutical compositions comprising synthetic peptide copolymers and methods for preventing and treating GVHD and HVGD” (Yeda Research and Development Co.Ltd., priority 1999, dated 2006)

Legend:
[1] = tested on: proliferation of B10.PL (H-2u) responder cells to PL/J stimulator cells; experiment: Mixed lymphocyte reaction (MLR) across minor histocompatibility barriers; format: cell-based, mice; conditions: 20 μg/well, Cop 1 Batch I, 1:1 ratio of responder to stimulator cells
Protocol: (§1) Responder cells for MLR reactions across major histocompatibility barriers were harvested from spleen of non-immunized mice while responder cells for MLR across minor histocompatibility barriers were harvested from mice which were preimmunized with irradiated (30 Gy) 50×10^6 stimulator spleen cells 21 days before. Responder cells (5×10^5 spleen cells per well) were tested for their proliferative response by plating with different amounts (2.5 to 10×10^5) of irradiated stimulator cells, in presence or absence of various peptide inhibitors (10–100 μg per well). Cultures were set up in 200 μl media containing 10% FCS in flat-bottom microtiter plates. After 4 days of incubation, cultures were pulsed with 1 μCi of [^3H]thymidine for an additional 16 hours. Results are represented as mean counts per minute (cpm) thymidine incorporation from triplicate cultures.
To investigate the feasibility of inhibition of MLR by Copolymer 1, an MLR system was developed in which Copolymer 1 was tested for its ability to inhibit the proliferation of B10.PL (H-2^u) responder cells to stimulator cells of either the same (PL/J) or different (BALB/c) H-2 haplotype. For comparison, the inhibitory MBP Ac 1-11[4A], MBP 35-47, a combination of Ac 1-1[4A]+MBP 35-47, MBP 89-101 and KM-core peptides, described in Schlegel et al. (1994), were used in the MLR experiments.
The inhibition obtained by Copolymer 1 was similar (in response to minor histocompatibility antigen) or even higher (in response to major histocompatibility antigen) than the inhibition obtained with the combination of the two synthetic peptides Ac 1-11[4A] and MBP 35-47, which specifically bind to the class II molecules I-A^u and the I-E^u, respectively. The molar efficiency of Copolymer 1 of M.W. 6000 is even higher since the molecular weight of the synthetic peptides is 4–5 fold lower.

[2] = tested on: T cell proliferation in MHC-disparate mixed lymphocyte cultures; experiment: Mixed lymphocyte cultures across major histocompatibility barriers, six MHC-disparate strain combinations; format: cell-based, mice
Protocol: as §1

[3] = tested on: function of transplanted thyroids; experiment: Thyroid graft assay for HVGD (125I absorption of thyroid transplanted in kidney capsule); format: in vivo, mice
Protocol: In this transplantation model for HVGD, thyroid glands from donor mice were transplanted in the kidney's capsules of recipient mice. One week later the transplanted mice were injected with ^125I, and the radioactivity of each kidney (the recipient or the untransplanted kidney) was measured after 20 hours. Δcpm was calculated by subtracting the ^125I absorbance of the untransplanted kidneys from the ^125I absorbance of the recipient kidneys in the same treatment. The mean function index (MFI) for treatment was calculated by dividing the mean Δcpm for the tested (Copolymer 1) treatment by the mean Δcpm for the PBS treatment. P values were obtained by the t test. This assay indicates objectively and quantitatively not only the graft survival, but also the function (iodine absorbance) of the transplanted thyroid tissue (Isakov et al., 1979).
The transplanted mice were treated daily with Copolymer 1 600 μg/day (300 μg ip+300 μg sc) in PBS solution, starting 7 days before transplantation. The first Cop 1 treatment on day −7 was injected sc in ICFA as a depot dose. Control mice were treated daily with PBS alone and PBS with ICFA on day −7 before transplantation.
To test the effect of Copolymer 1 treatment on the function of transplanted thyroids in the B10.D2→BALB/c model, thyroid glands from donors B10.D2 were transplanted in the kidney's capsules of BALB/c mice. After one week the transplanted mice were injected with ^125I, and the radioactivity of each kidney was measured 20 hours later. cpm was calculated by subtracting the ^125I absorbance of the untransplanted kidneys from the ^125I absorbance of the recipient kidneys in the same treatment. The mean function index (MFI) for each treatment was calculated by dividing the mean ^125I absorbance of (transplanted kidney-untransplanted kidney) in the tested treatment by the mean ^125I absorbance of (transplanted kidney-untransplanted kidney) in the PBS treatment, as follows: […]

[4] = tested on: B10.D2 responder T cells with APC presenting BALB/c mH antigens; experiment: Proliferative responses to minor H antigens in vitro, Cop 1 present in the assay; format: cell-based, mice; conditions: for cpm (Cop 1 Assay Concentration): Resp. + APC
Protocol: B10.D2 mice were injected ip. with irradiated (20 Gy) BALB/c spleen cells 72 hours prior to the assay. B10.D2 spleen cells were harvested, depleted of red blood cells (RBC) and used as irradiated (10 Gy) antigen-presenting cells (APC) presenting BALB/c mH antigens. For the primary assay, APC were plated at 2.5×10^5 cells per well in 96-well round-bottom plates and incubated with 2.5×10^5 nylon-wool-enriched responder T cells (>88% CD3^+ by FACS […]). After 96 hours of incubation, cells were pulsed with 1 μCi [^3H]-thymidine for an additional 16 hours before harvesting. In the secondary assay, irradiated APC were plated at 2.5×10^5 cells/well in 96-well round-bottom plates, preincubated for 24 hours at 37° C. with increasing concentrations of GLAT (2.5–80 μg/well) or with medium alone, and thereafter washed three times before the addition of 2.5×10^5 nylon-wool-enriched responder T cells from naive B10.D2 mice. Culture medium was RPMI 1640, supplemented with 10% pre-screened fetal calf serum, 2 mM glutamine, 50 μM 2-mercaptoethanol, 100 U/ml penicillin, and 100 μg/ml streptomycin.
B10.D2 mice were injected ip with irradiated (20 Gy) BALB/c spleen cells 72 hours prior to the assay. B10.D2 spleen cells were harvested, depleted of RBC and used as irradiated (10 Gy) APC presenting BALB/c mH antigens. APC were plated at 2.5×10^5 cells/well in 96-well round-bottom plates and incubated with 2.5×10^5 nylon-wool-enriched responder T cells (>88% CD3^+ by FACS analysis) from naive B10.D2 mice in the presence or absence of increasing concentrations of Copolymer 1 (Batch I) (2.5–80 μg/well). After 96 hours of incubation, cells were pulsed with 1 μCi [^3H]-thymidine for an additional 16 hours before harvesting. […] Maximum inhibition was 100% at a concentration of 80 μg/well.

[5] = B10.D2 → BALB, H-2d, another experiment (N 5), Cop 1 600 μg/day
[6] = B10.D2 → BALB/c, H-2d, Cop 1 600 μg, N 10
[7] = B10PL → PL/J, H-2d, Cop 1 600 μg/day
[8] = C57BL → BALB, H-2b → H-2d, Cop 1 600 μg/day
[9] = C57BL → C3H, H-2b, Cop 1 600 μg/day

Glatiramer acetate [Cop 1]
inhibition of MLR [1]: 63%
inhibitory effect on the MLC ([2]; 10–100 μg/well, all concentrations tested): dose-dependent inhibition
concentration sufficient to achieve 50% inhibition of the proliferative responses ([2]; Batch I): 10–25 μg/well
Maximum inhibition ([2]; all strain combinations tested): 100%
Mean 125I Absorption, Transplanted Kidney (cpm) [3, 5]: 1035 cpm
Mean 125I Absorption, Untransplanted Kidney (cpm) [3, 5]: 137 cpm
cpm (transplanted minus untransplanted kidney) [3, 5]: 898 cpm
Mean 125I Absorption, Transplanted Kidney (cpm) [3, 6]: 2901 cpm
Mean 125I Absorption, Untransplanted Kidney (cpm) [3, 6]: 450 cpm
cpm (transplanted minus untransplanted kidney) [3, 6]: 2451 cpm
Mean 125I Absorption, Transplanted Kidney (cpm) [3, 7]: 2009 cpm
Mean 125I Absorption, Untransplanted Kidney (cpm) [3, 7]: 332 cpm
cpm (transplanted minus untransplanted kidney) [3, 7]: 1677 cpm
Mean 125I Absorption, Transplanted Kidney (cpm) [3, 8]: 10759 cpm
Mean 125I Absorption, Untransplanted Kidney (cpm) [3, 8]: 924 cpm
cpm (transplanted minus untransplanted kidney) [3, 8]: 9835 cpm
Mean 125I Absorption, Transplanted Kidney (cpm) [3, 9]: 1643 cpm
Mean 125I Absorption, Untransplanted Kidney (cpm) [3, 9]: 281 cpm
cpm (transplanted minus untransplanted kidney) [3, 9]: 1362 cpm
MFI (mean function index) ([3]; folds over PBS treatment, B10.D2 → BALB, H-2d, another experiment (N 5), Cop 1 600 μg/day): 5.2
MFI (mean function index) ([3]; folds over PBS treatment, B10.D2 → BALB/c, H-2d, Cop 1 600 μg, N 10): 3.2
MFI (mean function index) ([3]; relative to PBS treatment, B10PL → PL/J, H-2d, Cop 1 600 μg/day): 2.5
MFI (mean function index) ([3]; relative to PBS treatment, C57BL → BALB, H-2b → H-2d, Cop 1 600 μg/day): 3.0
MFI (mean function index) ([3]; relative to PBS treatment, C57BL → C3H, H-2b, Cop 1 600 μg/day): 2.3
Maximum inhibition of proliferative responses to mH antigens ([4]; 80 μg/well): 100%
cpm (Cop 1 Assay Concentration) ([4]; Cop 1 1.5 μg): 124,904 cpm
cpm (Cop 1 Assay Concentration) ([4]; Cop 1 5 μg): 126,405 cpm
cpm (Cop 1 Assay Concentration) ([4]; Cop 1 10 μg): 119,866 cpm
cpm (Cop 1 Assay Concentration) ([4]; Cop 1 20 μg): 75,840 cpm
cpm (Cop 1 Assay Concentration) ([4]; Cop 1 40 μg): 23,591 cpm
cpm (Cop 1 Assay Concentration) ([4]; Cop 1 80 μg): 361 cpm
